The text below walks through data of US20230143604A1, “QW DOSING OF GIP RECEPTOR AGONIST PEPTIDE COMPOUNDS AND USES THEREOF” (TAKEDA PHARMACEUTICAL COMPANY LIMITED, priority 2020, published 2023).

For orientation: solubility means how much of the substance goes into solution per volume.

Starred links: 1 amine or outer side, 2 acyl side, 3 side chain; linkers in the order of their positions; H or OH if unused. Non-standard residues stand in square brackets, D forms with d. Residues, ends and D or L forms follow the SMILES beside them. Groups on a side chain read outwards from the residue. *: point of attachment. C20 diacid = O=C(O)CCCCCCCCCCCCCCCCCCC(=O)*; C18 diacid = O=C(O)CCCCCCCCCCCCCCCCC(=O)*; γGlu = O=C(O)[C@H](CCC(=O)[*:2])N[*:1]; NMeY = CN[C@@H](Cc1ccc(O)cc1)C(=O)O; AEEA = NCCOCCOCC(=O)O; Aib = CC(C)(N)C(=O)O

This data set can be described thus: Solubility in phosphate buffer pH 7.4. In a few lines:
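3 mg of peptide treated with 100 μL portions of 200 mM phosphate buffer pH 7.4, sonicating/vortexing up to 1 min, with further buffer added until fully dissolved. Solubility then quantified by HPLC.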

The mark [1] stands for this setting: pH 7.4, aqueous buffer, pH 7.4 Phosphate Buffer - Solubility, 200 mM Phosphate buffer pH 7.4.
[2] abbreviates: pH 7.4, solubility in phosphate buffer at pH 7.4, 200 mM phosphate buffer pH 7.4.

Regarding `CC[C@H](C)[C@H](NC(=O)[C@H](CO)NC(=O)[C@H](Cc1ccc(O)cc1)NC(=O)[C@H](CC(=O)O)NC(=O)[C@H](CO)NC(=O)[C@@H](NC(=O)[C@H](Cc1ccccc1)NC(=O)[C@@H](NC(=O)CNC(=O)[C@H](CCC(=O)O)NC(=O)C(C)(C)NC(=O)[C@H](Cc1ccc(O)cc1)NC)[C@@H](C)O)[C@@H](C)CC)C(=O)N[C@@H](C)C(=O)N[C@@H](CC(C)C)C(=O)N[C@@H](CC(=O)O)C(=O)N[C@@H](CCCNC(=N)N)C(=O)NC(C)(C)C(=O)N[C@@H](C)C(=O)N[C@@H](CCC(N)=O)C(=O)NC(C)(C)C(=O)N[C@@H](CC(=O)O)C(=O)N[C@@H](Cc1ccccc1)C(=O)N[C@H](C(=O)N[C@@H](CC(N)=O)C(=O)N[C@@H](Cc1c[nH]c2ccccc12)C(=O)N[C@@H](CC(C)C)C(=O)N[C@@H](CC(C)C)C(=O)N[C@@H](C)C(=O)N[C@@H](CCCCNC(=O)COCCOCCNC(=O)COCCOCCNC(=O)CC[C@H](NC(=O)CC[C@H](NC(=O)CCCCCCCCCCCCCCCCC(=O)O)C(=O)O)C(=O)O)C(=O)N[C@@H](CCCNC(=N)N)C(=O)N1CCC[C@H]1C(=O)N[C@@H](CO)C(=O)N[C@@H](CO)C(=O)NCC(=O)N[C@@H](C)C(=O)N1CCC[C@H]1C(=O)N1CCC[C@H]1C(=O)N1CCC[C@H]1C(=O)N[C@@H](CO)C(N)=O)C(C)C` [Compound 58] (H-[NMeY][Aib]EGTFISDYSIALDR[Aib]AQ[Aib]DFVNWLLAK([AEEA-AEEA-γGlu-γGlu-C18 diacid])RPSSGAPPPS-NH2), the solubility by setting is: under setting [1], not below 30 mg/mL; under setting [2], not below 15 mg/mL.
As for `CC[C@H](C)[C@H](NC(=O)[C@H](CO)NC(=O)[C@H](Cc1ccc(O)cc1)NC(=O)[C@H](CC(=O)O)NC(=O)[C@H](CO)NC(=O)[C@@H](NC(=O)[C@H](Cc1ccccc1)NC(=O)[C@@H](NC(=O)CNC(=O)[C@H](CCC(=O)O)NC(=O)C(C)(C)NC(=O)[C@H](Cc1ccc(O)cc1)NC)[C@@H](C)O)[C@@H](C)CC)C(=O)N[C@@H](C)C(=O)N[C@@H](CC(C)C)C(=O)N[C@@H](CC(=O)O)C(=O)N[C@@H](CCCNC(=N)N)C(=O)NC(C)(C)C(=O)N[C@@H](C)C(=O)N[C@@H](CCC(N)=O)C(=O)NC(C)(C)C(=O)N[C@@H](CC(N)=O)C(=O)N[C@@H](Cc1ccccc1)C(=O)N[C@H](C(=O)N[C@@H](CC(N)=O)C(=O)N[C@@H](Cc1c[nH]c2ccccc12)C(=O)N[C@@H](CC(C)C)C(=O)N[C@@H](CC(C)C)C(=O)N[C@@H](C)C(=O)N[C@@H](CCCCNC(=O)COCCOCCNC(=O)COCCOCCNC(=O)CC[C@H](NC(=O)CC[C@H](NC(=O)CCCCCCCCCCCCCCCCC(=O)O)C(=O)O)C(=O)O)C(=O)N[C@@H](CO)C(=O)N1CCC[C@H]1C(=O)N[C@@H](CO)C(=O)N[C@@H](CO)C(=O)NCC(=O)N[C@@H](C)C(=O)N1CCC[C@H]1C(=O)N1CCC[C@H]1C(=O)N1CCC[C@H]1C(=O)N[C@@H](CO)C(N)=O)C(C)C` [Compound 59] (H-[NMeY][Aib]EGTFISDYSIALDR[Aib]AQ[Aib]NFVNWLLAK([AEEA-AEEA-γGlu-γGlu-C18 diacid])SPSSGAPPPS-NH2), the solubility is, setting by setting: under setting [1], not below 30 mg/mL; under setting [2], not below 15 mg/mL.
As to `CC[C@H](C)[C@H](NC(=O)[C@H](CO)NC(=O)[C@H](Cc1ccc(O)cc1)NC(=O)[C@H](CC(=O)O)NC(=O)[C@H](CO)NC(=O)[C@@H](NC(=O)[C@H](Cc1ccccc1)NC(=O)[C@@H](NC(=O)CNC(=O)[C@H](CCC(=O)O)NC(=O)C(C)(C)NC(=O)[C@H](Cc1ccc(O)cc1)NC)[C@@H](C)O)[C@@H](C)CC)C(=O)N[C@@H](C)C(=O)N[C@@H](CC(C)C)C(=O)N[C@@H](CC(=O)O)C(=O)N[C@@H](CCCNC(=N)N)C(=O)NC(C)(C)C(=O)N[C@@H](C)C(=O)N[C@@H](CCC(N)=O)C(=O)NC(C)(C)C(=O)N[C@@H](CC(=O)O)C(=O)N[C@@H](Cc1ccccc1)C(=O)N[C@H](C(=O)N[C@@H](CC(N)=O)C(=O)N[C@@H](Cc1c[nH]c2ccccc12)C(=O)N[C@@H](CC(C)C)C(=O)N[C@@H](CC(C)C)C(=O)N[C@@H](C)C(=O)N[C@@H](CCC(N)=O)C(=O)N[C@@H](CCCCNC(=O)COCCOCCNC(=O)COCCOCCNC(=O)CC[C@H](NC(=O)CC[C@H](NC(=O)CCCCCCCCCCCCCCCCC(=O)O)C(=O)O)C(=O)O)C(=O)NCC(=O)O)C(C)C` [Compound 61] (H-[NMeY][Aib]EGTFISDYSIALDR[Aib]AQ[Aib]DFVNWLLAQK([AEEA-AEEA-γGlu-γGlu-C18 diacid])G-OH), the solubility is not below 15 mg/mL (pH 7.4) and not below 30 mg/mL (pH 7.4, aqueous buffer).
The like results for `CC[C@H](C)[C@H](NC(=O)[C@H](Cc1ccccc1)NC(=O)[C@@H](NC(=O)CNC(=O)[C@H](CCC(=O)O)NC(=O)C(C)(C)NC(=O)[C@H](Cc1ccc(O)cc1)NC)[C@@H](C)O)C(=O)N[C@@H](CO)C(=O)N[C@@H](CC(=O)O)C(=O)N[C@@H](Cc1ccc(O)cc1)C(=O)N[C@@H](CO)C(=O)N[C@H](C(=O)NC(C)(C)C(=O)N[C@@H](CC(C)C)C(=O)N[C@@H](CC(=O)O)C(=O)N[C@@H](CCCNC(=N)N)C(=O)NC(C)(C)C(=O)N[C@@H](C)C(=O)N[C@@H](CCC(N)=O)C(=O)NC(C)(C)C(=O)N[C@@H](CC(=O)O)C(=O)N[C@@H](Cc1ccccc1)C(=O)N[C@H](C(=O)N[C@@H](CC(N)=O)C(=O)N[C@@H](Cc1c[nH]c2ccccc12)C(=O)N[C@@H](CC(C)C)C(=O)N[C@@H](CC(C)C)C(=O)N[C@@H](C)C(=O)N[C@@H](CCCCNC(=O)COCCOCCNC(=O)COCCOCCNC(=O)CC[C@H](NC(=O)CC[C@H](NC(=O)CCCCCCCCCCCCCCCCC(=O)O)C(=O)O)C(=O)O)C(=O)N[C@@H](CCCNC(=N)N)C(=O)NCC(=O)O)C(C)C)[C@@H](C)CC` [Compound 62] (H-[NMeY][Aib]EGTFISDYSI[Aib]LDR[Aib]AQ[Aib]DFVNWLLAK([AEEA-AEEA-γGlu-γGlu-C18 diacid])RG-OH) were, in that order, not below 15 mg/mL and not below 30 mg/mL.
The compound `CC[C@H](C)[C@H](NC(=O)[C@H](Cc1ccccc1)NC(=O)[C@@H](NC(=O)CNC(=O)[C@H](CCC(=O)O)NC(=O)C(C)(C)NC(=O)[C@H](Cc1ccc(O)cc1)NC)[C@@H](C)O)C(=O)N[C@@H](CO)C(=O)N[C@@H](CC(=O)O)C(=O)N[C@@H](Cc1ccc(O)cc1)C(=O)N[C@@H](CO)C(=O)N[C@H](C(=O)NC(C)(C)C(=O)N[C@@H](CC(C)C)C(=O)N[C@@H](CC(=O)O)C(=O)N[C@@H](CCCNC(=N)N)C(=O)NC(C)(C)C(=O)N[C@@H](C)C(=O)N[C@@H](CCC(N)=O)C(=O)NC(C)(C)C(=O)N[C@@H](CCCCNC(=O)COCCOCCNC(=O)COCCOCCNC(=O)CC[C@H](NC(=O)CC[C@H](NC(=O)CCCCCCCCCCCCCCCCCCC(=O)O)C(=O)O)C(=O)O)C(=O)N[C@@H](Cc1ccccc1)C(=O)N[C@H](C(=O)N[C@@H](CC(N)=O)C(=O)N[C@@H](Cc1c[nH]c2ccccc12)C(=O)N[C@@H](CC(C)C)C(=O)N[C@@H](CC(C)C)C(=O)N[C@@H](C)C(=O)N[C@@H](CCC(N)=O)C(=O)N[C@@H](CCCCN)C(=O)NCC(=O)O)C(C)C)[C@@H](C)CC` [Compound 65] (H-[NMeY][Aib]EGTFISDYSI[Aib]LDR[Aib]AQ[Aib]K([AEEA-AEEA-γGlu-γGlu-C20 diacid])FVNWLLAQKG-OH) registered a solubility (pH 7.4) not below 15 mg/mL and a solubility (pH 7.4, aqueous buffer) not below 30 mg/mL.
For `CC[C@H](C)[C@H](NC(=O)[C@H](Cc1ccccc1)NC(=O)[C@@H](NC(=O)CNC(=O)[C@H](CCC(=O)O)NC(=O)C(C)(C)NC(=O)[C@H](Cc1ccc(O)cc1)NC)[C@@H](C)O)C(=O)N[C@@H](CO)C(=O)N[C@@H](CC(=O)O)C(=O)N[C@@H](Cc1ccc(O)cc1)C(=O)N[C@@H](CO)C(=O)N[C@H](C(=O)NC(C)(C)C(=O)N[C@@H](CC(C)C)C(=O)N[C@@H](CC(=O)O)C(=O)N[C@@H](CCCNC(=N)N)C(=O)NC(C)(C)C(=O)N[C@@H](C)C(=O)N[C@@H](CCC(N)=O)C(=O)NC(C)(C)C(=O)N[C@@H](CCCCNC(=O)COCCOCCNC(=O)COCCOCCNC(=O)CC[C@H](NC(=O)CC[C@H](NC(=O)CCCCCCCCCCCCCCCCC(=O)O)C(=O)O)C(=O)O)C(=O)N[C@@H](Cc1ccccc1)C(=O)N[C@H](C(=O)N[C@@H](CC(N)=O)C(=O)N[C@@H](Cc1c[nH]c2ccccc12)C(=O)N[C@@H](CC(C)C)C(=O)N[C@@H](CC(C)C)C(=O)N[C@@H](C)C(=O)N[C@@H](CCC(N)=O)C(=O)N[C@@H](CCCCN)C(=O)NCC(=O)O)C(C)C)[C@@H](C)CC` [Compound 66] (H-[NMeY][Aib]EGTFISDYSI[Aib]LDR[Aib]AQ[Aib]K([AEEA-AEEA-γGlu-γGlu-C18 diacid])FVNWLLAQKG-OH) the same measures were not below 15 mg/mL and not below 30 mg/mL.
Under setting [2], `CC[C@H](C)[C@H](NC(=O)[C@H](CO)NC(=O)[C@H](Cc1ccc(O)cc1)NC(=O)[C@H](CC(=O)O)NC(=O)[C@H](CO)NC(=O)[C@@H](NC(=O)[C@H](Cc1ccccc1)NC(=O)[C@@H](NC(=O)CNC(=O)[C@H](CCC(=O)O)NC(=O)C(C)(C)NC(=O)[C@H](Cc1ccc(O)cc1)NC)[C@@H](C)O)[C@@H](C)CC)C(=O)N[C@@H](C)C(=O)N[C@@H](CC(C)C)C(=O)N[C@@H](CC(=O)O)C(=O)N[C@@H](CCCNC(=N)N)C(=O)NC(C)(C)C(=O)N[C@@H](CCCCNC(=O)COCCOCCNC(=O)COCCOCCNC(=O)CC[C@H](NC(=O)CC[C@H](NC(=O)CCCCCCCCCCCCCCCCCCC(=O)O)C(=O)O)C(=O)O)C(=O)N[C@@H](CCC(N)=O)C(=O)NC(C)(C)C(=O)N[C@@H](CC(N)=O)C(=O)N[C@@H](Cc1ccccc1)C(=O)N[C@H](C(=O)N[C@@H](CC(N)=O)C(=O)N[C@@H](Cc1c[nH]c2ccccc12)C(=O)N[C@@H](CC(C)C)C(=O)N[C@@H](CC(C)C)C(=O)N[C@@H](C)C(=O)N[C@@H](CCC(N)=O)C(=O)N[C@@H](CO)C(=O)N1CCC[C@H]1C(=O)N[C@@H](CO)C(=O)N[C@@H](CO)C(=O)NCC(=O)N[C@@H](C)C(=O)N1CCC[C@H]1C(=O)N1CCC[C@H]1C(=O)N1CCC[C@H]1C(=O)N[C@@H](CO)C(N)=O)C(C)C` [Compound 68] (H-[NMeY][Aib]EGTFISDYSIALDR[Aib]K([AEEA-AEEA-γGlu-γGlu-C20 diacid])Q[Aib]NFVNWLLAQSPSSGAPPPS-NH2) gave a solubility not below 15 mg/mL.
